Source: patent US12324927B2, “Methods and systems for photodynamic therapy calculations” (THE TRUSTEES OF THE UNIVERSITY OF PENNSYLVANIA, priority 2018, dated 2025)
Values joined by “and” are separate entries in the source; they are usually repeats but may differ in a detail not shown here. Equal entries are not always repeated.

Experiment: Photofrin concentration and PDT dose at pleural cavity sites measured by fluorescence with 4-channel PDT dose dosimeter during Photofrin-mediated pleural PDT
Format: in vivo, human
Details: for Mean Photofrin concentration: local tissue concentration per patient and pleural site, Photofrin 2 mg kg^−1 i.v. 24 h before PDT, mean ± SD of smoothed values
Description: The patients in this study were enrolled in a Phase II randomized clinical trial of Photofrin-mediated PDT for pleural mesothelioma treatment. Having given informed consent, they were administered Photofrin (Pinnacle Biologics, Chicago, IL, USA) at 2 mg kg^−1 of body weight as an intravenous infusion 24 h prior to intra-operative PDT. PDT was performed in the operating room, immediately following radical pleurectomy and debulking of tumor. PDT treatment was performed with 632 nm light provided by a KTP-pumped dye laser (model 630 XP, Laserscope, Inc., San Jose, CA, USA) to a total fluence of 60 J cm^−2. Light was delivered to the pleural cavity via an optical fiber inserted into modified endotracheal tube filled with 0.1% intralipid to produce an extended isotropic light source. The pleural cavity was filled with 0.01% intralipid solution during PDT treatment. As the intralipid solution became contaminated with blood as observed by the treating physician, it was repeatedly removed by suction pump and replaced with fresh solution to minimize light absorption by hemoglobin. The light source was circulated around in the lung cavity by the physician during the PDT. The instantaneous light fluence rate and the cumulative light dose were monitored continuously using 8 isotropic detectors (Medlight, Switzerland) sutured to 8 strategic locations within the pleural cavity wall. […] Each spectrometer has wavelength range of 200 nm-1050 nm and resolution of 0.42 nm using a diode array of 2048×1 elements and 14 μm×200 μm per element. The spectral resolution achieved was 0.47 nm. Isotropic detectors 9 to 12 were connected to the multichannel dosimetry system only. The dosimetry system records light fluence rate using photodiodes. Light fluence rate at surface is measured directly with an isotropic detector placed on the surface. The measured light fluence rate is not reflective of intra-tissue light fluence rate, which may be higher or lower than the value on the tissue surface depending on the tissue optical properties. Fluorescence collected by the fibers was collimated and passed through long pass filters (Semrock, Inc., Rochester, NY, USA) to block the treatment light before the transmitted fluorescence was recorded by the spectrometers, whereas no filtration was required for the treatment-light signal in the other arm of the bifurcated fibers. The front view and the schematic diagram of the system setup are shown in FIGS. 1A-B. There are 16 channels on the system enclosure as shown in FIG. 1A. Channels 9 to 16 (top row) are connected to the dosimetry system only whereas Channels 1 to 4 (bottom row) are connected to both the dosimetry system and the spectrometers. Channels 5 to 8 (bottom row) are currently not used. In this study, Channels 1 to 4 are used to measure fluence rate of the treatment light and Photofrin fluorescence concurrently, while Channel 9 to 12 are used to measure light fluence rate only.
Diffuse reflectance measurements were acquired before and after PDT treatment using a specially designed fiber optic-based contact probe comprising (e.g., or consisting of) one source fiber, coupled to an air-cooled quartz-tungsten-halogen (QTH) lamp (Avalight HAL-S, Avantes, Inc., Louisville, CO, USA), and 9 detection fibers spaced at distances from 1.4 to 8.7 mm from the source. Measurements were made with the probe in contact with the interior surface of the pleural cavity. The reflected light was collected by the detection fibers which are imaged via a spectrograph onto a CCD, to measure radially-resolved diffuse reflectance. Background signal was measured in the same tissue with the white light source turned off, and then subtracted from each measurement. Each tissue spectrum is divided by the spectrum obtained with the same light source and detector in an integrating sphere to account for the wavelength-dependence of the white light source power and CCD response. […]

[1] = 22 sites, 8 patients, 2 mg kg^−1

- mean of the local Photofrin concentrations measured from all sites [1]: 3.94±2.01 mg kg 1
- median of the local Photofrin concentrations measured from all sites [1]: 3.37 ± 2.01 mg/kg
- Mean Photofrin concentration (pleural site AS): 3.22 ± 0.35 mg/kg
- Mean Photofrin concentration (pleural site Peri): 1.87 ± 0.31 mg/kg
Substance: Photofrin
- Mean Photofrin concentration (pleural site ACW): 2.80 ± 0.27 mg/kg and 9.38 ± 0.57 mg/kg
- Mean Photofrin concentration (pleural site Apex): 4.71 ± 0.15 mg/kg and 3.12 ± 0.35 mg/kg and 1.13 ± 0.02 mg/kg and 3.27 ± 0.71 mg/kg and 7.19 ± 0.92 mg/kg and 4.56 ± 0.45 mg/kg
- Mean Photofrin concentration (pleural site PCW): 3.47 ± 0.42 mg/kg and 1.47 ± 0.20 mg/kg and 1.58 ± 0.21 mg/kg and 5.23 ± 0.47 mg/kg and 2.32 ± 0.23 mg/kg
- Mean Photofrin concentration (pleural site PM): 5.65 ± 0.67 mg/kg and 3.62 ± 0.61 mg/kg and 6.81 ± 0.35 mg/kg
- Mean Photofrin concentration (pleural site PS): 2.94 ± 0.12 mg/kg and 3.01 ± 0.05 mg/kg and 5.73 ± 0.24 mg/kg and 3.54 ± 0.16 mg/kg
- difference of local sensitizer concentrations within the same patient (patient #020, same administered dose 2 mg kg^−1): 2.9 times
- difference of local sensitizer concentrations between patients (patients #016 and #018, same administered dose 2 mg kg^−1): 8.3 times
